# Test results published in paper PMC11881035, “^68Ga-Labeled Glycopeptides as Effective Tools for Liver Function Imaging” (Molecular Pharmaceutics, 2025).
# Like-named read-outs stand apart in the source and are kept apart here. Where a SMILES comes first, the peptide text is derived from it. The star is where a group is joined. X1 = O=C(CCCCc1cn([C@@H]2O[C@H](CO)[C@H](O)[C@H](O)[C@H]2O)nn1)*; NODAGA = O=C(O)CN1CCN(CC(=O)O)CCN(C(CCC(=O)*)C(=O)O)CC1; GABA = NCCCC(=O)O
# Legend:
# log D determination = format: physicochemical; settings: read-out: log D
# Experimental: (§1) The ^68Ge/^68Ga generator, devices for analytical HPLC, semipreparative HPLC, mass spectrometry, radio-thin layer chromatography, gamma counter and animal models for biodistribution and imaging studies including the image reconstruction procedures were the same as described before.[22] Stability assays in PBS and human blood serum, protein binding as well as determination of log D values followed established protocols.[25] Binding affinities (IC50) of selected ligands were determined in an isolated receptor-based assay according to a previously published procedure with minor modifications.[22] Dilutions of nonradioactive complexes were made with PBS + 0.1% BSA (10^–5–10^–12 M). Preparation of [^125I]I-Asialoorosomucoid which serves as the radioactive standard ligand has been published recently.[21]
# [1] = protein binding in human serum; format: in vitro ADME; settings: for fraction unbound: human, serum, read-out: protein binding (%) (converted)
# Experimental: as §1
# [2] = complex stability in human blood serum; format: in vitro ADME
# Experimental: as §1
# [3] = biodistribution in healthy BALB/c mice; settings: mouse, in vivo; for tissue uptake at 10 min: 10 min p.i.; for tissue uptake at 0.5 h: 30 min p.i.; for tissue uptake at 1 h: 60 min p.i.
# Experimental: as §1
# Animal experiments were performed in accordance with the Austrian animal experiments law (BGBl. I Nr. 114/2012) and the institution’s animal welfare standards as approved by the Austrian Federal Ministry of Education, Science and Research (BMBWF, 2022–0.311.708). Imaging experiments were conducted at Werner Siemens Imaging Center (Tübingen, Germany) according to the German animal welfare act as approved by the local authorities (R5/19 G, R09/21 G).
# Figure 2 Biodistribution data (% ID/g) of ^68Ga-labeled NODAGA-GalNAc-NonaLysan, NODAGA-NonaLysan, NODAGA-HexaLysan, and NODAGA-TriLysan in healthy BALB/c mice at 10, 30, and 60 min p.i. (100 pmol, 1 MBq).
# ASGR = target: T1, ASGR (Mus musculus, UniProt P24721+P34927); assay: blocking experiment, coinjection of N-acetylgalactosamine, biodistribution in BALB/c mice; settings: in vivo, 30 min p.i., 27.7 μmol N-acetylgalactosamine
# T1 construct: from tissue; host or cells: liver and other organs of living healthy female BALB/c mice
# T1 sequence (P34927 1-284): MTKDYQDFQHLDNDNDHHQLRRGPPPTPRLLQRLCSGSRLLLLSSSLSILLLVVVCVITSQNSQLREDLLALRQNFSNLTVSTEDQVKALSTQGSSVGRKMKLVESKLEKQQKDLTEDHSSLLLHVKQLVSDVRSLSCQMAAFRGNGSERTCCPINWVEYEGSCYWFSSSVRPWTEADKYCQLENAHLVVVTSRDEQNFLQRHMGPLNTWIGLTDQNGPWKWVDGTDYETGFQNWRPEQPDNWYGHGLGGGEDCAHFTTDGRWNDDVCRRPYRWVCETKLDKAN
# T1 sequence (P24721 1-301): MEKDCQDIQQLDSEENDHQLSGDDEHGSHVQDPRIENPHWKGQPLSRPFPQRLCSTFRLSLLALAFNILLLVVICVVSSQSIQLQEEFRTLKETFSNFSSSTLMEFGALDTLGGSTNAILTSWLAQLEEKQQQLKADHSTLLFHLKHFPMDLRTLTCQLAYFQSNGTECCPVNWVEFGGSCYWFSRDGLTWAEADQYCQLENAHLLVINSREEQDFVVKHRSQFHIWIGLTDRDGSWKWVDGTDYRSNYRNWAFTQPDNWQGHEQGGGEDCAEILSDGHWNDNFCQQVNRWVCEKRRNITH
# Experimental: Less liver uptake was found for [^68Ga]Ga-NODAGA-HexaLysan (55.5 ± 7.4% ID/g, 30 min p.i.) and least for [^68Ga]Ga-NODAGA-TriLysan (9.4 ± 2.0% ID/g, 30 min p.i.). […] However, an increasing activity accumulation in the intestine was found for [^68Ga]Ga-NODAGA-NonaLysan, [^68Ga]Ga-NODAGA-GalNAc-Nonalysan, and [^68Ga]Ga-NODAGA-HexaLysan over time. Nevertheless, liver-to-organ ratios were highest for [^68Ga]Ga-NODAGA-NonaLysan (Figure 3). Lower liver-to-organ ratios were found for the GalNAc derivative due to higher off-target binding in the pancreas, stomach, heart, muscle, lung, and femur. […] Coinjection of both nonamers with a large excess of N-acetylgalactosamine led to a statistically significant reduction of liver uptake indicating specific interactions of the tracers with their target (Figure 4). As a consequence of the reduced liver uptake also a reduction of the intestinal uptake was observed.
# Figure 4 Data (% ID/g) from the blocking experiments using ^68Ga-labeled NODAGA-GalNAc-NonaLysan and NODAGA-NonaLysan in healthy BALB/c mice at 30 min p.i. Blocking was carried out using 27.7 μmol of N-acetylgalactosamine (**p ≤ 0.01; *p ≤ 0.05).
# complex stability in PBS = format: physicochemical
# Experimental: as §1
compound,measurement,setting,value
"NC(=O)CNC(=O)CNC(=O)[C@H](CCCCNC(=O)CCCCc1cn([C@@H]2O[C@H](CO)[C@H](O)[C@H](O)[C@H]2O)nn1)NC(=O)CNC(=O)CNC(=O)[C@H](CCCCNC(=O)CCCCc1cn([C@@H]2O[C@H](CO)[C@H](O)[C@H](O)[C@H]2O)nn1)NC(=O)CNC(=O)CNC(=O)[C@H](CCCCNC(=O)CCCCc1cn([C@@H]2O[C@H](CO)[C@H](O)[C@H](O)[C@H]2O)nn1)NC(=O)CNC(=O)CNC(=O)[C@H](CCCCNC(=O)CCCCc1cn([C@@H]2O[C@H](CO)[C@H](O)[C@H](O)[C@H]2O)nn1)NC(=O)CNC(=O)CNC(=O)[C@H](CCCCNC(=O)CCCCc1cn([C@@H]2O[C@H](CO)[C@H](O)[C@H](O)[C@H]2O)nn1)NC(=O)CNC(=O)CNC(=O)[C@H](CCCCNC(=O)CCCCc1cn([C@@H]2O[C@H](CO)[C@H](O)[C@H](O)[C@H]2O)nn1)NC(=O)CNC(=O)CNC(=O)[C@H](CCCCNC(=O)CCCCc1cn([C@@H]2O[C@H](CO)[C@H](O)[C@H](O)[C@H]2O)nn1)NC(=O)CNC(=O)CNC(=O)[C@H](CCCCNC(=O)CCCCc1cn([C@@H]2O[C@H](CO)[C@H](O)[C@H](O)[C@H]2O)nn1)NC(=O)CNC(=O)CNC(=O)[C@H](CCCCNC(=O)CCCCc1cn([C@@H]2O[C@H](CO)[C@H](O)[C@H](O)[C@H]2O)nn1)NC(=O)CCCNC(=O)CCC(C(=O)O)N1CCN(CC(=O)O)CCN(CC(=O)O)CC1 (stereo partly shown) [[^68Ga]Ga-NODAGA-NonaLysan, metal not drawn] ({NODAGA-GABA}-K(X1)GGK(X1)GGK(X1)GGK(X1)GGK(X1)GGK(X1)GGK(X1)GGK(X1)GGK(X1)GG-NH2)",logD,log D determination,-4.06
same,protein binding (%),[1]; 120 min,21.5 ± 3.4%
same,fraction unbound,[1]; 2 min,0.847
same,fraction unbound,[1]; 30 min,0.717
same,fraction unbound,[1]; 60 min,0.737
same,fraction unbound,[1]; 120 min,0.813
same,complex stability in serum (% intact ligand),[2]; 2 min,99.5 ± 0.1%
same,complex stability in serum (% intact ligand),[2]; 30 min,99.5 ± 0.1%
same,complex stability in serum (% intact ligand),[2]; 60 min,99.5 ± 0.1%
same,complex stability in serum (% intact ligand),[2]; 120 min,99.6%
same,tissue uptake at 10 min,[3]; read-out: Blood uptake,0.4 ± 0.03 %ID/g
same,tissue uptake at 10 min,[3]; read-out: Femur uptake,0.3 ± 0.02 %ID/g
same,tissue uptake at 10 min,[3]; read-out: Heart uptake,0.4 ± 0.04 %ID/g
same,tissue uptake at 10 min,[3]; read-out: Intestine uptake,0.8 ± 0.2 %ID/g
same,tissue uptake at 10 min,[3]; read-out: Kidneys uptake,1.2 ± 0.1 %ID/g
same,tissue uptake at 10 min,[3]; read-out: Liver uptake,71.2 ± 0.4 %ID/g
same,tissue uptake at 10 min,[3]; read-out: Lung uptake,0.9 ± 0.1 %ID/g
same,tissue uptake at 10 min,[3]; read-out: Muscle uptake,0.6 ± 0.1 %ID/g
same,tissue uptake at 10 min,[3]; read-out: Pancreas uptake,0.8 ± 0.1 %ID/g
same,tissue uptake at 10 min,[3]; read-out: Spleen uptake,0.6 ± 0.2 %ID/g
same,tissue uptake at 10 min,[3]; read-out: Stomach uptake,0.7 ± 0.2 %ID/g
same,tissue uptake at 0.5 h,[3]; read-out: Blood uptake,0.2 ± 0.04 %ID/g
same,tissue uptake at 0.5 h,[3]; read-out: Femur uptake,0.3 ± 0.1 %ID/g
same,tissue uptake at 0.5 h,[3]; read-out: Heart uptake,0.4 ± 0.04 %ID/g
same,tissue uptake at 0.5 h,[3]; read-out: Intestine uptake,5.6 ± 0.2 %ID/g
same,tissue uptake at 0.5 h,[3]; read-out: Kidneys uptake,0.8 ± 0.03 %ID/g
same,tissue uptake at 0.5 h,[3]; read-out: Liver uptake,79.6 ± 8 %ID/g
same,tissue uptake at 0.5 h,[3]; read-out: Lung uptake,0.7 ± 0.1 %ID/g
same,tissue uptake at 0.5 h,[3]; read-out: Muscle uptake,0.7 ± 0.03 %ID/g
same,tissue uptake at 0.5 h,[3]; read-out: Pancreas uptake,0.9 ± 0.1 %ID/g
same,tissue uptake at 0.5 h,[3]; read-out: Spleen uptake,0.2 ± 0.03 %ID/g
same,tissue uptake at 0.5 h,[3]; read-out: Stomach uptake,1.2 ± 0.4 %ID/g
same,tissue uptake at 1 h,[3]; read-out: Blood uptake,0.2 ± 0.1 %ID/g
same,tissue uptake at 1 h,[3]; read-out: Femur uptake,0.2 ± 0.01 %ID/g
same,tissue uptake at 1 h,[3]; read-out: Heart uptake,0.5 ± 0.1 %ID/g
same,tissue uptake at 1 h,[3]; read-out: Intestine uptake,7.9 ± 0.5 %ID/g
same,tissue uptake at 1 h,[3]; read-out: Kidneys uptake,1 ± 0.2 %ID/g
same,tissue uptake at 1 h,[3]; read-out: Liver uptake,69.6 ± 1 %ID/g
same,tissue uptake at 1 h,[3]; read-out: Lung uptake,0.9 ± 0.1 %ID/g
same,tissue uptake at 1 h,[3]; read-out: Muscle uptake,0.6 ± 0.1 %ID/g
same,tissue uptake at 1 h,[3]; read-out: Pancreas uptake,1.2 ± 0.2 %ID/g
same,tissue uptake at 1 h,[3]; read-out: Spleen uptake,0.5 ± 0.03 %ID/g
same,tissue uptake at 1 h,[3]; read-out: Stomach uptake,1.8 ± 1 %ID/g
same,tissue uptake at 0.5 h,ASGR; read-out: Blood uptake,0.3 ± 0.2 %ID/g
same,tissue uptake at 0.5 h,ASGR; read-out: Femur uptake,0.2 ± 0.01 %ID/g
same,tissue uptake at 0.5 h,ASGR; read-out: Heart uptake,0.3 ± 0.03 %ID/g
same,tissue uptake at 0.5 h,ASGR; read-out: Intestine uptake,2.2 ± 0.2 %ID/g
same,tissue uptake at 0.5 h,ASGR; read-out: Kidneys uptake,2 ± 0.8 %ID/g
same,tissue uptake at 0.5 h,ASGR; read-out: Liver uptake,48 ± 1.1 %ID/g
same,tissue uptake at 0.5 h,ASGR; read-out: Lung uptake,0.6 ± 0.1 %ID/g
same,tissue uptake at 0.5 h,ASGR; read-out: Muscle uptake,0.4 ± 0.04 %ID/g
same,tissue uptake at 0.5 h,ASGR; read-out: Pancreas uptake,0.5 ± 0.1 %ID/g
same,tissue uptake at 0.5 h,ASGR; read-out: Spleen uptake,0.3 ± 0.2 %ID/g
same,tissue uptake at 0.5 h,ASGR; read-out: Stomach uptake,0.9 ± 0.3 %ID/g
same,complex stability in PBS (% intact ligand),complex stability in PBS; 2 min,99.6%
same,complex stability in PBS (% intact ligand),complex stability in PBS; 30 min,99.4%
same,complex stability in PBS (% intact ligand),complex stability in PBS; 60 min,99.3%
same,complex stability in PBS (% intact ligand),complex stability in PBS; 120 min,99.3%
